Values of other authors as cited in US20200339511A1, “Substituted indoline derivatives as dengue viral replication inhibitors” (priority 2016, published 2020).

System: DENV-2
Conditions: analogous DENV-2 antiviral assay, reported activity; cited from earlier work

Compound	EC50
CNC(=O)c1cccc(NC(C(=O)c2c[nH]c3ccccc23)c2ccccc2)c1 (centres unmarked) [(170) of WO-2013/045516]	440 nM
COc1cccc(NC(C(=O)N2CCc3ccccc32)c2ccccc2)c1 (centres unmarked) [(56) of WO-2013/045516]	450 nM
